Test results reported in ChEMBL document CHEMBL1139880, “Potent and selective agonists of human melanocortin receptor 5: cyclic analogues of alpha-melanocyte-stimulating hormone” (J Med Chem, 2007).
Starred links: 1 amine or outer side, 2 acyl side, 3 side chain; linkers in the order of their positions; H or OH if unused. Positions of bridges follow the written chain, without caps; N, C: chain ends. Non-standard residues stand in square brackets, D forms with d. Residues, ends and D or L forms follow the SMILES beside them. ξ: configuration not given here. X7 = O=C([C@H](Cc1ccc(Cc2ccccc2)cc1)N[*:1])[*:2]; Oic(3aξ,7aξ) = O=C(O)[C@@H]1CC2CCCCC2N1; Pip = O=C(O)[C@@H]1CCCCN1; Nle = CCCC[C@H](N)C(=O)O

What was measured:
Homo sapiens [1] = organism: Homo sapiens; test: Selectivity for human cloned MC5R over human cloned MC3R
Melanocortin receptor 4 [2] = target: T1, Melanocortin receptor 4 (Homo sapiens, UniProt P32245); test: Agonist activity at human MC4R expressed in CHO cells assessed as cAMP accumulation at 10 uM relative to [125I]NDPalphaMSH; assay type: functional, cell-based
T1 sequence (P32245 whole entry): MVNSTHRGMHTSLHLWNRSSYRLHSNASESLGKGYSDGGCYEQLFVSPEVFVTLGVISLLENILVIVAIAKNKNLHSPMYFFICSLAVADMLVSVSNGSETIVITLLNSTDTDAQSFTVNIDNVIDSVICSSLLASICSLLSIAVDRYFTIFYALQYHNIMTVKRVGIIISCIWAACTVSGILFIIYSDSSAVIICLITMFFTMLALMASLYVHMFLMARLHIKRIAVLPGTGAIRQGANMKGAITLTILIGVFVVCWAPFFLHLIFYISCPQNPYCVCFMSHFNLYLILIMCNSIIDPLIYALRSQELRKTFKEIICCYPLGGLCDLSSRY

Homo sapiens [3] = organism: Homo sapiens; test: Selectivity for human cloned MC5R over human cloned MC1bR
Melanocortin receptor 3 [4] = target: T2, Melanocortin receptor 3 (Homo sapiens, UniProt P41968); test: Agonist activity at human MC3R expressed in CHO cells assessed as cAMP accumulation at […] relative to [125I]NDPalphaMSH; assay type: functional, cell-based
T2 sequence (P41968 whole entry): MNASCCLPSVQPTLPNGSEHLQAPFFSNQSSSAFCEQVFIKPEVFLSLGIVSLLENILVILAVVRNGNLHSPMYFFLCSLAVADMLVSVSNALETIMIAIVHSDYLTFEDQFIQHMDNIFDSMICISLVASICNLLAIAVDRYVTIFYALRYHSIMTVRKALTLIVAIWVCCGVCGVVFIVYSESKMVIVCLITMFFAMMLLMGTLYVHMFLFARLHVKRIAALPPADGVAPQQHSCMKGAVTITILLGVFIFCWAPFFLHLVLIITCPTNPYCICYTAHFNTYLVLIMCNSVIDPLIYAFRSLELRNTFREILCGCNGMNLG

[5] = target: Melanocortin receptor (M4 and M5) (Homo sapiens) (UniProt P32245+P33032); test: Selectivity for human cloned MC5R over human cloned MC4R; assay type: protein assay
Melanocortin receptor (M4 and M5) (Homo sapiens), sequence (P32245 whole entry, looked up): as the sequence (P32245 whole entry) above
Melanocortin receptor (M4 and M5) (Homo sapiens), sequence (P33032 whole entry, looked up): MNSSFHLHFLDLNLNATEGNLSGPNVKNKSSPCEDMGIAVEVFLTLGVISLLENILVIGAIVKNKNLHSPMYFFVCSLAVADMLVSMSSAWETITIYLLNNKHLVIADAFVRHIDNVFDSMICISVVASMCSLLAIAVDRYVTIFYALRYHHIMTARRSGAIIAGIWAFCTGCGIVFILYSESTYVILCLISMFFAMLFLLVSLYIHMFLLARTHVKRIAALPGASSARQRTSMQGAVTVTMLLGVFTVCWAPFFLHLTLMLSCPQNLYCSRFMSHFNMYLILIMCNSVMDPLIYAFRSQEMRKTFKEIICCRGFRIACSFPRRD

Melanocortin receptor 4 [6] = target: T1, Melanocortin receptor 4; test: Agonist activity at human MC4R expressed in CHO cells assessed as cAMP accumulation at 1 uM relative to [125I]NDPalphaMSH; assay type: functional, cell-based
[7] = target: Melanocyte-stimulating hormone receptor (Homo sapiens, UniProt Q01726); test: Agonist activity at human melanocortin receptor 1b expressed in CHO cells assessed as cAMP accumulation at 1 uM relative to [125I]NDPalphaMSH; assay type: functional, cell-based
Melanocyte-stimulating hormone receptor, sequence (Q01726 whole entry, looked up): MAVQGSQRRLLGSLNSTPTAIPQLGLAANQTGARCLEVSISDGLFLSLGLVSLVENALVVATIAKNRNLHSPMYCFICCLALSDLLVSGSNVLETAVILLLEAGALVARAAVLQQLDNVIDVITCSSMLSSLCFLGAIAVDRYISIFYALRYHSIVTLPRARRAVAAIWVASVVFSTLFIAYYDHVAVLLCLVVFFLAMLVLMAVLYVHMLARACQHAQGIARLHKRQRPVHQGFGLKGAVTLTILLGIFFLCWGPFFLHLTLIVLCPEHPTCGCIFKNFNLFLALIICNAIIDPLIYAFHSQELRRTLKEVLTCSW

Melanocortin receptor 3 [8] = target: T2, Melanocortin receptor 3; test: Agonist activity at human MC3R expressed in CHO cells assessed as cAMP accumulation at 1 uM relative to [125I]NDPalphaMSH; assay type: functional, cell-based
Melanocortin receptor 4 [9] = target: T1, Melanocortin receptor 4; test: Agonist activity at human MC4R expressed in CHO cells assessed as cAMP accumulation at […] relative to [125I]NDPalphaMSH; assay type: functional, cell-based; details: filed as partial agonist
Melanocortin receptor 3 [10] = target: T2, Melanocortin receptor 3; test: Agonist activity at human MC3R expressed in CHO cells assessed as cAMP accumulation at 10 uM relative to [125I]NDPalphaMSH; assay type: functional, cell-based
Melanocortin receptor 4 [11] = target: T1, Melanocortin receptor 4; test: Agonist activity at human MC4R expressed in CHO cells assessed as cAMP accumulation at […] relative to [125I]NDPalphaMSH
Melanocortin receptor 3 [12] = target: T2, Melanocortin receptor 3; test: Agonist activity at human MC3R expressed in CHO cells assessed as cAMP accumulation at 5 uM relative to [125I]NDPalphaMSH; assay type: functional, cell-based
Melanocortin receptor 4 [13] = target: T1, Melanocortin receptor 4; test: Agonist activity at human MC4R expressed in CHO cells assessed as cAMP accumulation at 5 uM relative to [125I]NDPalphaMSH; assay type: functional, cell-based; details: filed as agonist
Melanocortin receptor 3 [14] = target: T2, Melanocortin receptor 3; test: Agonist activity at human MC3R expressed in CHO cells assessed as cAMP accumulation at 2 uM relative to [125I]NDPalphaMSH; assay type: functional, cell-based

Ratio IC50 (Homo sapiens [1])	Ratio IC50 (Homo sapiens [3])	Ratio IC50 [5]	Activity (Melanocortin receptor 3 [8]) [%]	Structure (SMILES)	other results
217	720	340		CCCC[C@H](NC(C)=O)C(=O)N[C@H]1CC(=O)NCCCC[C@@H](C(N)=O)NC(=O)[C@H](Cc2c[nH]c3ccccc23)NC(=O)[C@@H]2CCCN2C(=O)[C@H](Cc2ccc(-c3ccccc3)cc2)NC(=O)[C@@H]2CCCN2C1=O	Activity (Melanocortin receptor 4 [2]; filed as partial agonist): 40%; Activity (Melanocortin receptor 3 [4]): 2%
			0	CCCC[C@H](NC(C)=O)C(=O)N[C@H]1CC(=O)NCCCC[C@@H](C(N)=O)NC(=O)[C@H](Cc2c[nH]c3ccccc23)NC(=O)[C@@H]2CCCCN2C(=O)[C@H](Cc2ccc(-c3ccccc3)cc2)NC(=O)[C@H](c2ccccc2)NC1=O	Activity (Melanocortin receptor 4 [6]; filed as agonist): 72%; Activity [7]: 16%
1940	8	790		CCCC[C@H](NC(C)=O)C(=O)N[C@H]1CC(=O)NCCCC[C@@H](C(N)=O)NC(=O)[C@H](Cc2c[nH]c3ccccc23)NC(=O)[C@@H]2CCCCN2C(=O)[C@H](Cc2ccc(-c3ccccc3)cc2)NC(=O)[C@H](Cc2c[nH]cn2)NC1=O	Activity (Melanocortin receptor 4 [9]): 41%
				CCCC[C@H](NC(C)=O)C(=O)N[C@H]1CC(=O)NCCCC[C@@H](C(N)=O)NC(=O)[C@H](Cc2cc3ccccc3[nH]2)NC(=O)[C@@H]2CCCN2C(=O)[C@H](Cc2ccccc2)NC(=O)[C@H](Cc2cnc[nH]2)NC1=O	Activity (Melanocortin receptor 4 [2]): 7%; Activity (Melanocortin receptor 3 [10]): 5%
1440	260	260		CCCC[C@H](NC(C)=O)C(=O)N[C@H]1CC(=O)NCCCC[C@@H](C(N)=O)NC(=O)[C@H](Cc2c[nH]c3ccccc23)NC(=O)[C@@H]2CCCCN2C(=O)[C@H](Cc2ccc(-c3ccccc3)cc2)NC(=O)[C@@H]2Cc3ccccc3CN2C1=O	Activity (Melanocortin receptor 3 [4]): 10%; Activity (Melanocortin receptor 4 [11]): 0%
			2	CCCC[C@H](NC(C)=O)C(=O)N[C@H]1CC(=O)NCCCC[C@@H](C(N)=O)NC(=O)[C@H](Cc2c[nH]c3ccccc23)NC(=O)[C@@H]2CCCCN2C(=O)[C@H](Cc2ccc(Cc3ccccc3)cc2)NC(=O)[C@@H]2CC3CCCCC3N2C1=O (stereo partly drawn) (Ac-[Nle]D[Oic(3aξ,7aξ)][X7][Pip]WK-NH2; lactam 2-7)	Activity [7]: 3%
440	780	470		CCCC[C@H](NC(C)=O)C(=O)N[C@H]1CC(=O)NCCCC[C@@H](C(N)=O)NC(=O)[C@H](Cc2c[nH]c3ccccc23)NC(=O)[C@@H]2CCCN2C(=O)[C@H](Cc2ccc(-c3ccccc3)cc2)NC(=O)[C@@H]2CC3CCCCC3N2C1=O (stereo partly drawn)	Activity (Melanocortin receptor 3 [12]): 1%; Activity (Melanocortin receptor 4 [13]): 97%
1800	430	1060		CCCC[C@H](NC(C)=O)C(=O)N[C@H]1CC(=O)NCCCC[C@@H](C(N)=O)NC(=O)[C@H](Cc2c[nH]c3ccccc23)NC(=O)[C@@H]2CCCCN2C(=O)[C@H](Cc2ccc(-c3ccccc3)cc2)NC(=O)[C@@H]2CCCN2C1=O	Activity (Melanocortin receptor 4 [6]): 9%; Activity (Melanocortin receptor 3 [14]): 8%
			1	CCCC[C@H](NC(C)=O)C(=O)N[C@H]1CC(=O)NCCCC[C@@H](C(N)=O)NC(=O)[C@H](Cc2c[nH]c3ccccc23)NC(=O)[C@@H]2CCCCN2C(=O)[C@H](Cc2ccc(-c3ccccc3)cc2)NC(=O)[C@H](C2CCCCC2)NC1=O	Activity (Melanocortin receptor 4 [6]; filed as partial agonist): 43%
